Source: patent publication US4464354A, “(3,4-c)-Pyrido psoralens, process of preparation, application in cosmetology and therapeutics, and cosmetological and pharmaceutical composition with them” (Institut National de la Sante et de la Recherche Medicale, priority 1982, dated 1984)
“Also recorded” adds a separate entry of the source. Where two headings read alike, the source gives them in different places.

What was measured:
[1] = mice, after exposure to light in the near ultraviolet range around 365 nm; cited from earlier work
psoriasis = conditions: human, in vivo; cited from earlier work
normal human skin = assay: erythema test on normal human skin (forearm); type: in vivo; conditions: for erythematogenicity (conclusion): in vivo
Experimental: The clinical and therapeutic activity of compounds 1a and 1b has been also measured on human skin. 10 mg of compounds 1a and 1b were diluted in 2 g of a purified lanolin commercially available under the name ROC hydrocerine which was made liquid by heating to 60° C. This local preparation was first tested on normal human skin (of the forearm). An amount of 10 micrograms/cm2 of products 1a and 1b was applied to a circular cutaneous surface 3 cm in diameter. The two products were left on the skin for 2 hours to insure a sufficient cutaneous penetration. […] The same experiment was repeated a second time with irradiation of 20 J/cm2 through a glass plate in order to filter out all the ultraviolet B radiation. […] This erythema, slightly apparent, continued for 18 days. […] The […] result of the reflective photoplethysmograph were totally identical for products 1a and 1b. […] The […] only appeared in doses of irradiation where are twice that customarily used in a therapeutic treatment.

[2] = system: Saccharomyces cerevisiae yeast; assay: induction of lethal effects in yeast with 365 nm irradiation (UVA); type: cell-based; conditions: for photodynamic activity (oxygen dependent) on induction of lethal damages: yeast
Experimental: (§1) This photobiological activity has in effect been defined by the induction of lethal effects, the induction of "small colony" cytoplasmic mutations (damage in the mitochondrial DNA) and the induction of nuclear mutations (reverse and forward). The experiments were conducted in the customary manner in conformity with the following references:
Thus, the dose of UVA must be between 2.5 and 5 times weaker in the case of compounds 1a and 1b than in the case of 8-MOP to attain the same survival rate.

DNA [3] = conditions: background statement; cited from earlier work
[4] = background statement, cited from earlier work
[5] = system: V79 chinese hamster cells; assay: antiproliferatory effect: inhibition of colony formation of V79 cells; type: cell-based; conditions: 5×10^-6 M
Experimental: The photobiological activity of the two monofunctional componds 1a and 1b have been studied in mammalian cells in vitro in order to determine their antiproliferatory effect.
A diploid strain of V79 chinese hamster cells were used.
The action of the compounds on cell survival (i.e. the antiproliferatory effect) was determined by measuring their power to inhibit the capacity of cells to form colonies. The technique used is that described by C.

psoriatic plaque [6] = assay: therapeutic test comparing 8-methoxypsoralen and product 1b; type: in vivo, human; conditions: 10^-2 M; for deterioration after end of treatment: one patient without further treatment
From the text: The concentrations of 8-MOP and product 1b were 10^-2 M in the same excipient as that used in the previous therapeutic test. Both preparations were applied on two rounded zones 3 cm in diameter, located on the same psoriatic plaque and were irradiated according to the same procedure of gradually increasing ultraviolet irradiation until a maximum of 10 J/cm2 per treatment.

[7] = system: DNA of cells of the wild type; assay: direct biochemical verification of cross-linking in DNA of cells treated and irradiated at 365 nm; type: cell-based, yeast; conditions: for form of DNA after renaturation (cross-links): 10^-5 M, 365 nm, two doses (30% and 5% survival rate)
From the text: Indeed, DNA of cells of the wild type were extracted immediately after treatment with products 1a, 1b at a concentration of 10^-5 M and irradiation with two doses of radiation at 365 nm (30% and 5% survival rate). […] If the DNA contains cross-links it renatures itself and is found in the double chain form separable by gradient density from single chain DNA.

synthesis of DNA = assay: photosensitizer effect on DNA synthesis in human fibroblasts; type: cell-based; conditions: UVA 365 nm
From the text: (§2) (F. Bordin, F. Baccichetti and L. Musajo, Experientia 28, 148 (1972)).
(§3) The cells cultivated in Petri dishes having a minimum Eagle medium with 10% embryonic calf serum were marked by precursors which were specific to the exponential phase of growth. The rates of synthesis were estimated by measuring the incorporation of the radioactive precursors in the acid-precipitable material (see S. Nocentini, Biochim. Biophys., Acta 521, 160 (1978)).

mitochondrial DNA = assay: induction of "small colony" cytoplasmic mutations; type: cell-based, Saccharomyces cerevisiae; conditions: in 10% of the survivors
Experimental: as §1
If the induction of cytoplasmic mutations is considered as a function of the survivors, the compounds 1a and 1b which are monofunctional derivatives of psoralen, show in 10% of the survivors a rate of induction of cytoplasmic mutation greater than 50%.

[8] = spectroscopic absorption properties; type: physicochemical; conditions: compared with psoralen
From the text: Compounds 1a and 1b have similar spectroscopic properties which differ markedly with respect to those of psoralen.

DNA [9] = assay: photoaffinity for DNA in vivo; type: cell-based, yeast
[10] = system: Saccharomyces cerevisiae yeast; assay: induction of forward mutations (resistance to canavanine); type: cell-based
Experimental: as §1, with “references: […]” for “references:”

[11] = system: haploid strain of Saccharomyces cerevisiae yeast; assay: induction of nuclear mutations: His+ reversions; type: cell-based; conditions: 5×10^-6 M, same survivor rate
Experimental: as §1
The induction of nuclear mutations (reversions and "forward" mutations) has been determined according to procedures described in the above-mentioned articles.

synthesis of RNA = assay: photosensitizer effect on RNA synthesis in human fibroblasts; type: cell-based; conditions: UVA 365 nm
From the text: as §2, §3

[12] = mutagenicity (general statements)
psoriatic plaque [13] = assay: therapeutic test on psoriatic plaque, products 1a and 1b; type: in vivo, human
Experimental: 10 mg of compounds 1a and 1b were diluted in 2 g of a purified lanolin commercially available under the name ROC hydrocerine which was made liquid by heating to 60° C. Products 1a and 1b have also been tested in the same excipient on a high inflammatory psoriatic plaque. These two products were applied to surfaces having a 3 cm diameter. On a third surface the excipient alone was applied. […] The products and the lanolin alone were applied 2 hours before irradiation. […] This whitening was practically as fast in the zones treated with products 1a and 1b. The zone treated with lanolin alone remained unchanged.

yeast mutant pso2 = assay: sensitivity of yeast mutant pso2 versus wild type to photo-addition
DNA [14] = assay: formation of cross-links in DNA (general statements); type: biochemical; conditions: from induction of cytoplasmic and nuclear mutations
normal skin = assay: pigmentogenic properties on normal skin; type: in vivo, human; conditions: 0.5%
From the text: The pigmentogenic properties of products 1a and 1b have been tested on normal skin at a concentration of 0.5%.

[15] = 10 micrograms/cm2, UVA 20 J/cm2
[16] = 30 micrograms/cm2, by the tenth treatment
[17] = 30 micrograms/cm2, from the fourth treatment

Compound: CCOC(=O)c1cc2cc3ccoc3cc2oc1=O [3-carbethoxypsoralen, reference compound]
- carcinogenicity [1]: completely safe from this point of view
- therapeutic activity in patients having psoriasis (psoriasis): having a therapeutic activity in respect to patients having psoriasis
- erythematogenicity (conclusion) (normal human skin): is not
- photodynamic activity (oxygen dependent) on induction of lethal damages [2]: different

Compound: Cc1cc2c(ccc3c(C)cc(=O)oc32)o1 [4,5'-dimethylangelicine, reference compound]
- photodynamic activity (oxygen dependent) on induction of lethal damages [2]: comparable

Compound: COc1c2ccoc2cc2oc(=O)ccc12 [5-methoxypsoralen]
- carcinogenicity [1]: carcinogenic in mice
- capability of forming cross-links in DNA (DNA [3]): capable of forming cross-links in the DNA
- mutagenic activity and carcinogenesis in animals [4]: high mutagenic activity and carcinogenesis in animals
- mutagenic activity and carcinogenesis in animals ([4]; listed as 5-methoxy psoralen): mutagenic

Compound: COc1c2occc2cc2ccc(=O)oc12 [8-methoxypsoralen, reference compound]
- LD10 (dose which leaves 10% survive) ([5]; UVA): 3800 J/cm2
- deterioration after end of treatment (psoriatic plaque [6]): rapid deterioration
- form of DNA after renaturation (cross-links) [7]: cross-linked double strand DNA
- capability of forming cross-links in DNA (DNA [3]): capable of forming cross-links in the DNA
- photodynamic activity (oxygen dependent) on induction of lethal damages [2]: comparable
- mutagenic activity and carcinogenesis in animals [4]: high mutagenic activity and carcinogenesis in animals

Compound: Cc1c2occc2cc2c1oc(=O)c1cnccc12 [Compound 1b, Methyl-7-pyrido (3,4-c) furo (3,2-g) coumarin]
- LD10 (dose which leaves 10% survive) ([5]; UVA): 540 J/cm2
- considerable photosensitivity in V79 cells ([5]; UVA): considerable photosensitivity
- relative antiproliferatory effect ([5]; UVA): markedly more effective than compound 1a; also recorded: compared to 8-MOP, a higher antiproliferatory effect; also recorded: comparable to that of bifunctional furocoumarins
- diminution of cell survival in absence of radiation ([5]; no radiation): no diminution of cell survival
- inhibition capacity (DNA) compared with 3-CPs (synthesis of DNA): much more than 3-CPs
- inhibition capacity (DNA) compared with 8-MOP (synthesis of DNA): slightly more powerful than 8-MOP
- deterioration after end of treatment (psoriatic plaque [6]): practically no deterioration
- antipsoriatic effectiveness compared with 8-methoxypsoralen (psoriatic plaque [6]; three patients, up to 10 J/cm2 per treatment): more effective than 8-methoxypsoralen
- rate of induction of cytoplasmic mutation (mitochondrial DNA): greater than 50%
- coefficient of molecular absorption at 365 nm [8]: notably a higher coefficient of molecular absorption at 365 nm
- form of DNA after renaturation (cross-links) [7]: remains in single chain form after renaturation
- functional type (mono/bifunctional) ([7]; pso2 mutant and direct examination of DNA): mono functional type
- photoaffinity for DNA in vivo compared with 3-CPs (DNA [9]): makedly much high than that of monofunctional furocoumarin 3-CPs
- photoaffinity for DNA in vivo relative to 8-MOP (DNA [9]): ~20 times
- photoaffinity in respect to DNA compared with 8-MOP (conclusion) (DNA [9]): markedly greater than that of 8-MOP
- forward mutations as a function of surviving fractions compared with 3-CPs, 8-MOP and 4,5',8-TMeP [10]: markedly less mutagenic than 3-CPs and the bifunctional compounds 8-MOP and 4,5', 8-TMeP
- forward mutations as a function of UVA doses compared with 3-CPs ([10]; 5×10^-6 M versus 3-CPs at 5×10^-5 M): comparable to those obtained with 3-CPs at 5×10^-5 M
- His+ reversions rate compared with 3-CPs [11]: less than that observed after the treatment with 3-CPs
- His+ reversions rate compared with 8-MOP and 4,5',8-TMeP [11]: very much less than that observed after treatment with the bifunctional agents 8-MOP and 4,5', 8-TMeP
- inhibition capacity (RNA) compared with 3-CPs (synthesis of RNA): much more than 3-CPs
- inhibition capacity (RNA) compared with 8-MOP (synthesis of RNA): slightly more powerful than 8-MOP
- mutagenicity compared with 3-carbethoxypsoralen (conclusion) [12]: less mutagenic than 3-carbethoxypsoralen
- erythema at 5 J/cm2 (normal human skin; 10 micrograms/cm2, 2 hours before UVA 5 J/cm2): no precocious or delayed erythema was observed
- duration of erythema (normal human skin; [15]): 18 days
- time of appearance of erythema (normal human skin; [15]): 72 h
- erythema at 20 J/cm2 (normal human skin; 10 micrograms/cm2, UVA 20 J/cm2 through glass plate): slight erythema
- desquamation or local pain (normal human skin; UVA 20 J/cm2): no desquamation or local pain
- systolic pulse of the capillaries at erythematic zones (reflective photoplethysmography) (normal human skin; UVA 20 J/cm2): doubling of the systolic pulse
- erythematogenicity (conclusion) (normal human skin): not erythmatogenic in conditions of irradiation customarily used in human therapy; also recorded: very mildly erythmatogenic
- antipsoriatic action, third patient (psoriatic plaque [13]; 30 μg/cm2 two hours before UVA): complete whitening of the psoriasis
- antipsoriatic action, two of three patients (psoriatic plaque [13]; 30 μg/cm2 two hours before UVA): moderately better than product 1a
- pigmentogenic effect, two of three patients (psoriatic plaque [13]; 30 μg/cm2 two hours before UVA): more pigmentogenic
- antipsoriatic action of product 1b versus 1a (overall) (psoriatic plaque [13]; 10 treatments of PUVA, total dose 50 J/cm2): antipsoriatic action superior to that of product 1a
- erythema or secondary effect during treatments (psoriatic plaque [13]; 30 micrograms/cm2): no erythema or secondary effect was observed
- hyperpigmentation (psoriatic plaque [13]; 30 micrograms/cm2): hyperpigmentation was found in the two zones, in particular the one treated with product 1b
- total UVA dose to complete whitening (psoriatic plaque [13]; [16]): 50 J/cm2
- whitening of treated zones (psoriatic plaque [13]; [16]): complete whitening of the zones treated
- decrease of squamae (psoriatic plaque [13]; [17]): slight decrease of the squamae
- reduction of infiltration (psoriatic plaque [13]; [17]): tangible reduction of the infiltration
- antipsoriatic activity (conclusion) (psoriatic plaque [13]; applied locally): good antipsoriatic activity; also recorded: best therapeutic results
- photoreactivity compared with 4,5',8-trimethylpsoralen (conclusion) [2]: close to that of 4,5'-8-trimethylpsoralen
- activity on cell survival relative to 8-MOP ([2]; 5×10^-6 M, survival curves): 5 times
- activity compared with 4,5',8-trimethylpsoralen ([2]; equimolar 5×10^-6 M): activity close to that of 4,5', 8-trimethylpsoralen
- photodynamic activity (oxygen dependent) on induction of lethal damages [2]: do not exert on the yeast photodynamic activity
- photoreactivity on yeast strains (yeast mutant pso2): very photoreactive
- sensitivity of pso2 mutant compared with wild type (yeast mutant pso2; photo-addition): same sensitivity as the wild type
- formation of cross-links in the DNA (conclusion) (DNA [14]): incapable of forming cross-links in the DNA
- pigmentogenic properties, 1b versus 1a (normal skin): superior to those of product 1a; also recorded: more pigmentogenic than product 1a
- pigmentation of normal skin (normal skin; three normal patients, total UVA doses of 140 J/cm2): Visible pigmentation was observed on three normal patients tested with product 1b in all three cases
